Patent publication US20050048508A1, “Trehalose receptor and method for detecting trehalose with the same” (KABUSHIKI KAISHA HAYASHIBARA SEIBUTSU KAGAKU KENKYUJO, priority 2002, published 2005)

System: G protein α-subunits (α15 and α16/Z chimeric protein), no sweet taste receptor
Assay: Intracellular calcium ion assay, 293 cells expressing G protein α-subunits without sweet taste receptor
Assay type: cell-based, Mouse, Human
Conditions: 293 cells: G protein α-subunits only, no T1R1/T1R2/T1R3; 0.67 ml of 1 M saccharide solution added to 2 ml cell suspension
Procedure: The coexpression vector for the G protein α-subunit α15 and the G protein α16/Z chimeric protein (hereinafter designated as “G protein α-subunits”) obtained in Example 1-3 was gene transferred to 293 cells, RCB 1637, a human embryonic kidney cell line, available from the Riken Bioresource Center, Ibaraki, Japan, by conventional lipofection. The gene transferred cells were suspended in Dulbecco's Modified Eagle's Medium (D-MEM) supplemented with 1 mg/L of “PUROMYCIN”, a trade mane of puromycin commercialized by Edge Biosystems, MD, USA, and 10% (v/v) of fetal calf serum to give a cell density of 2×10^6 cells/ml and cultured in a plastic petri dish for cell culture. […]
The captioned reactivity test was conducted according to a conventional intracellular calcium ion assay: 293 Cells prepared in Example 3, capable of coexpressing the G protein α-subunits and the sweet taste receptor(s), were cultured in a plastic petri dish for cell culture until reaching its confluent phase. […] Two milliliters of the resultant cell suspension was injected into a glass cuvette, commercialized by Hitachi, Ltd., Tokyo, Japan, and analyzed on “HITACHI 650-40”, a fluorescence spectrophotometer commercialized by Hitachi, Ltd., Tokyo, Japan. […]

OC[C@H]1O[C@H](O[C@H]2O[C@H](CO)[C@@H](O)[C@H](O)[C@H]2O)[C@H](O)[C@@H](O)[C@@H]1O [Trehalose]
Influx of calcium ion: Negative

OC[C@H]1O[C@@](CO)(O[C@H]2O[C@H](CO)[C@@H](O)[C@H](O)[C@H]2O)[C@@H](O)[C@@H]1O [Sucrose, reference compound]
Influx of calcium ion: Negative
